Assay: method code SF-AS, from DOI: 10.1002/zfch.19860260715
Conditions: pH 7.4

logD	SMILES
2.09	CC(=O)NNC(=O)Nc1ccc(Oc2ccccc2)cc1
0.77	CC(=O)NNC(=O)Nc1cccc(C)c1
0.06	COc1ccc(NC(=O)NNC(C)=O)cc1
0.37	CC(=O)NNC(=O)Nc1ccc(C#N)cc1
0.76	CC(=O)NNC(=O)Nc1ccc(C)cc1
2.14	CC(=O)NNC(=O)Nc1ccc(C(C)(C)C)cc1
0.11	CC(=O)NNC(=O)Nc1ccc(N(C)C)cc1
0.55	CCOc1ccc(NC(=O)NNC(C)=O)cc1
1.63	CC(=O)NNC(=O)Nc1cccc(C(F)(F)F)c1
0.39	COc1cccc(NC(=O)NNC(C)=O)c1

From the SangsterLogP compilation
